Series [1] in a line: Cytotoxicity against human HeLa cells assessed as reduction in cell viability incubated for 72 hrs by CellTiter Glo assay. Type of series: toxicity, cell-based. (Cellular ATP, detected with luciferase, serves as a proxy for viable cell number.)
The nature of another series: physchem. As to conditions: MeOH/H2O, pH 7.

This note sets out measurements from ChEMBL document CHEMBL6134903, “Challenging triple negative breast cancer through HDAC6 selective inhibition: Novel cap-group identification, structure-activity relationships, computational and biological studies” (Eur J Med Chem, 2025).

Description for physchem: Solubility of the compound in MeOH/H20 at pH 7 incubated for 24 hrs by LC-MS/MS analysis

As for `O=C(/C=C/c1ccc(CN(CCO)CCc2c[nH]c3ccccc23)cc1)NO` [DACINOSTAT], in series [1], the 50% inhibitory concentration (IC50) (as a rule, the concentration that inhibits the measured activity by half) at 72 h is 30.8 nM and the cytotoxic concentration (CC50) (commonly the concentration at which the toxic effect on the cells reaches its halfway point) at 72 h came out at 30 nM. The like results for `Cc1[nH]c2ccccc2c1CCNCc1ccc(/C=C/C(=O)NO)cc1` [PANOBINOSTAT] were, in that order, 10.9 nM and 11 nM. Regarding `CN1CCc2c(c3ccccc3n2Cc2ccc(C(=O)NO)cc2)C1` [TUBASTATIN A], in the series “physchem”, the solubility – broadly, the concentration that dissolves in the medium under given conditions – at 24 h is < 1000 µg/mL.
